Laboratory results reported in patent US9169270B2, “1-phenyl-substituted heterocyclyl derivatives and their use as prostaglandin D2 receptor modulators” (Actelion Pharmaceuticals Ltd., priority 2012, dated 2015).

Target: hCRTH2 receptor (Homo sapiens (Human), UniProt Q9Y5Y4)
Experiment: hCRTH2 receptor membranes radioligand (3H-PGD2) displacement assay
Settings: hCRTH2 membrane fragments, Binding-Buffer with 0.1% BSA
Method: Biological Assays: Preparation of hCRTH2 Receptor Membranes and Radioligand Displacement Assay:
First, recombinant HEK293-hCRTH2 cells were detached from culture plates into 5 ml buffer A/plate (Buffer A: 5 mM Tris, 1 mM MgCl2-6H2O pH=7.4) using a rubber policeman. Cells were then transferred into centrifugation tubes and centrifuged for 5 min at 400 g. The cell pellet was resuspended in the same buffer and tubes were frozen at −80° C. Cells were thawed and membrane fragments were generated by homogenization using a polytron homogenizer (30 seconds). The membrane fragments were then centrifuged at 3000 g for 20 minutes and resuspended in buffer C (Buffer C: 75 mM Tris, 25 mM MgCl2, 250 mM Saccharose pH 7.4). Aliquots of membrane fragments were stored at −20° C.
Binding assay was performed in a final assay volume of 250 μl. First, 25 μl of test compound, previously diluted in Binding-Buffer (Binding-Buffer: 50 mM Tris-Base, 100 mM NaCl, 1 mM EDTA, 0.1% BSA (protease free), 0.01% NaN3, 10 mM MnCl2, pH 7.0) was placed into each well. […] Binding assay was started by addition of 100 μl CRTH2 membrane fragments, reaching a final concentration of 20 μg/well. For non-specific binding, PGD2 was added to the reaction mixture to […] final concentration. This assay mix was incubated for 90 minutes at room temperature and then filtered through a GF/C filter 96-well plate which was pre-soaked for 3 hours in 0.5% polyethyleneimine (PEI). The filter-wells were washed three times with ice cold Binding-Buffer. Then, 40 μl of Microscint-40 (Packard) was added to each well and the retained radioactivity quantified in a Topcount (Packard).

hCRTH2 receptor, sequence (Q9Y5Y4 whole entry): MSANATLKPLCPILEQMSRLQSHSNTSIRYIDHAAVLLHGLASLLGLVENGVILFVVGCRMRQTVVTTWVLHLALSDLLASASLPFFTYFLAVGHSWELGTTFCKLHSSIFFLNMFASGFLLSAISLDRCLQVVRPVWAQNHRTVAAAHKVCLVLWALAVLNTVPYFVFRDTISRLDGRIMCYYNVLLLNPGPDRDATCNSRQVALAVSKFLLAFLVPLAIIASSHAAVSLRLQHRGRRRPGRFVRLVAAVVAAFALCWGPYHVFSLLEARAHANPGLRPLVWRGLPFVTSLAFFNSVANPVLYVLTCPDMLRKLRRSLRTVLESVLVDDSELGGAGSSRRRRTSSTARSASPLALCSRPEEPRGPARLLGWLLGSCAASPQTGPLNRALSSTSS

IC50 [nM]	Compound
2.8	O=C(O)COc1ccc(Cl)cc1[C@@H]1c2scnc2CCN1C(=O)[C@@H]1C[C@H]1c1cccc(F)c1 [Example 7, (4-Chloro-2-{(R)-5-[(1R,2R)-2-(3-fluoro-phenyl)-cyclopropanecarbonyl]-4,5,6,7-tetrahydro-thiazolo[5,4-c]pyridin-4-yl}-phenoxy)-acetic acid]
7.1	Cc1ccc(COC(=O)N2CCc3ncsc3C2c2cc(Cl)ccc2OCC(=O)O)c(C)c1 (racemic) [Example 100, (±)-4-(2-Carboxymethoxy-5-chloro-phenyl)-6,7-dihydro-4H-thiazolo[5,4-c]pyridine-5-carboxylic acid 2,4-dimethyl-benzyl ester]
30.9	O=C(O)COc1ccc(Cl)cc1C1c2sc(-c3ccccc3)nc2CCN1C(=O)OCc1ccccc1 (racemic) [Example 112, (±)-4-(2-Carboxymethoxy-5-chloro-phenyl)-2-phenyl-6,7-dihydro-4H-thiazolo[5,4-c]pyridine-5-carboxylic acid benzyl ester]
2.2	O=C(O)COc1ccc(Cl)cc1C1c2scnc2CCN1C(=O)OCc1cc(F)ccc1Cl (racemic) [Example 92, (±)-4-(2-Carboxymethoxy-5-chloro-phenyl)-6,7-dihydro-4H-thiazolo[5,4-c]pyridine-5-carboxylic acid 2-chloro-5-fluoro-benzyl ester]
6.1	Cc1cccc(COC(=O)N2CCc3ncsc3C2c2cc(Cl)ccc2OCC(=O)O)c1C (racemic) [Example 101, (±)-4-(2-Carboxymethoxy-5-chloro-phenyl)-6,7-dihydro-4H-thiazolo[5,4-c]pyridine-5-carboxylic acid 2,3-dimethyl-benzyl ester]
86.4	CCCc1nc2c(s1)C(c1cc(Cl)ccc1OCC(=O)O)N(C(=O)OCc1ccccc1)CC2 (racemic) [Example 111, (±)-4-(2-Carboxymethoxy-5-chloro-phenyl)-2-propyl-6,7-dihydro-4H-thiazolo[5,4-c]pyridine-5-carboxylic acid benzyl ester]
5.1	O=C(O)COc1ccc(Cl)cc1C1c2scnc2CCN1C(=O)OCc1nc2ccccc2o1 (racemic) [Example 97, (±)-4-(2-Carboxymethoxy-5-chloro-phenyl)-6,7-dihydro-4H-thiazolo[5,4-c]pyridine-5-carboxylic acid benzooxazol-2-ylmethyl ester]
14.2	CCc1nc2c(s1)C(c1cc(Cl)ccc1OCC(=O)O)N(C(=O)OCc1ccccc1)CC2 (racemic) [Example 16, (±)-4-(2-Carboxymethoxy-5-chloro-phenyl)-2-ethyl-6,7-dihydro-4H-thiazolo[5,4-c]pyridine-5-carboxylic acid benzyl ester]
18.5	C[C@@H](Oc1ccc(Cl)cc1C1c2scnc2CCN1C(=O)OCc1ccccc1)C(=O)O (mixture of isomers) [Example 119, (±)-4-[2-((R)-1-Carboxy-ethoxy)-5-chloro-phenyl]-6,7-dihydro-4H-thiazolo[5,4-c]pyridine-5-carboxylic acid benzyl ester]
5	O=C(O)COc1ccc(Cl)cc1[C@@H]1c2scnc2CCN1C(=O)[C@@H]1C[C@H]1c1ccc(F)cc1 [Example 8, (4-Chloro-2-{(R)-5-[(1R,2R)-2-(4-fluoro-phenyl)-cyclopropanecarbonyl]-4,5,6,7-tetrahydro-thiazolo[5,4-c]pyridin-4-yl}-phenoxy)-acetic acid]
8.5	O=C(O)COc1ccc(Cl)cc1C1c2scnc2CCN1C(=O)OCc1cccc(F)c1F (racemic) [Example 82, (±)-4-(2-Carboxymethoxy-5-chloro-phenyl)-6,7-dihydro-4H-thiazolo[5,4-c]pyridine-5-carboxylic acid 2,3-difluoro-benzyl ester]
11.8	CCCCOC(=O)N1CCc2ncsc2C1c1cc(Cl)ccc1OCC(=O)O (racemic) [Example 99, (±)-4-(2-Carboxymethoxy-5-chloro-phenyl)-6,7-dihydro-4H-thiazolo[5,4-c]pyridine-5-carboxylic acid butyl ester]
1.6	O=C(O)COc1ccc(Cl)cc1C1c2scnc2CCN1C(=O)OCn1ncc2ccccc21 (racemic) [Example 90, (±)-4-(2-Carboxymethoxy-5-chloro-phenyl)-6,7-dihydro-4H-thiazolo[5,4-c]pyridine-5-carboxylic acid indazol-1-ylmethyl ester]
45.1	COc1ccc2[nH]cc(CCC(=O)N3CCc4ncsc4C3c3cc(Cl)ccc3OCC(=O)O)c2c1 (racemic) [Example 26, (±)-(4-Chloro-2-{5-[3-(5-methoxy-1H-indol-3-yl)-propionyl]-4,5,6,7-tetrahydro-thiazolo[5,4-c]pyridin-4-yl}-phenoxy)-acetic acid]
0.3	O=C(O)COc1ccc(Cl)cc1[C@@H]1c2scnc2CCN1C(=O)OCc1cc(F)ccc1Cl [Example 64, (R)-4-(2-Carboxymethoxy-5-chloro-phenyl)-6,7-dihydro-4H-thiazolo[5,4-c]pyridine-5-carboxylic acid 2-chloro-5-fluoro-benzyl ester]
99.1	O=C(O)COc1ccc(Cl)cc1[C@@H]1c2scnc2CCN1C(=O)C[C@H]1OCCc2ccccc21 (racemic) [Example 39, (±)-{4-Chloro-2-[5-((±)-2-isochroman-1-yl-acetyl)-4,5,6,7-tetrahydro-thiazolo[5,4-c]pyridin-4-yl]-phenoxy}-acetic acid]
8.1	O=C(O)COc1ccc(Cl)cc1C1c2scnc2CCN1C(=O)CCCc1ccccc1F (racemic) [Example 30, (±)-(4-Chloro-2-{5-[4-(2-fluoro-phenyl)-butyryl]-4,5,6,7-tetrahydro-thiazolo[5,4-c]pyridin-4-yl}-phenoxy)-acetic acid]
6.5	O=C(O)COc1ccc(Cl)cc1C1c2sc(C(F)(F)F)nc2CCN1C(=O)OCc1ccccc1 (racemic) [Example 12, (±)-4-(2-Carboxymethoxy-5-chloro-phenyl)-2-trifluoromethyl-6,7-dihydro-4H-thiazolo[5,4-c]pyridine-5-carboxylic acid benzyl ester]
64.8	CC(C)c1nc2c(s1)C(c1cc(Cl)ccc1OCC(=O)O)N(C(=O)OCc1ccccc1)CC2 (racemic) [Example 13, (±)-4-(2-Carboxymethoxy-5-chloro-phenyl)-2-isopropyl-6,7-dihydro-4H-thiazolo[5,4-c]pyridine-5-carboxylic acid benzyl ester]
38.9	O=C(O)COc1ccc(Cl)cc1C1c2scnc2CCN1C(=O)NCc1cccc(F)c1 (racemic) [Example 2, (±)-{4-Chloro-2-[5-(3-fluoro-benzylcarbamoyl)-4,5,6,7-tetrahydro-thiazolo[5,4-c]pyridin-4-yl]-phenoxy}-acetic acid]
1.2	O=C(O)COc1ccc(Cl)cc1[C@@H]1c2scnc2CCN1C(=O)OCc1ccc(F)cc1 [Example 61, (R)-4-(2-Carboxymethoxy-5-chloro-phenyl)-6,7-dihydro-4H-thiazolo[5,4-c]pyridine-5-carboxylic acid 4-fluoro-benzyl ester]
71.9	Cc1ccc(/C=C/C(=O)N2CCc3ncsc3C2c2cc(Cl)ccc2OCC(=O)O)cc1 (racemic) [Example 56, (±)-{4-Chloro-2-[5-((E)-3-p-tolyl-acryloyl)-4,5,6,7-tetrahydro-thiazolo[5,4-c]pyridin-4-yl]-phenoxy}-acetic acid]
15.8	O=C(O)COc1ccc(Cl)cc1C1c2scnc2CCN1C(=O)Cc1ccc2ccccc2c1 (racemic) [Example 49, (±)-{4-Chloro-2-[5-(2-naphthalen-2-yl-acetyl)-4,5,6,7-tetrahydro-thiazolo[5,4-c]pyridin-4-yl]-phenoxy}-acetic acid]
1.4	O=C(O)COc1ccc(Cl)cc1[C@@H]1c2scnc2CCN1C(=O)OCCCF [Example 74, (R)-4-(2-Carboxymethoxy-5-chloro-phenyl)-6,7-dihydro-4H-thiazolo[5,4-c]pyridine-5-carboxylic acid 3-fluoro-propyl ester]
48.1	O=C(O)COc1ccc(Cl)cc1C1c2scnc2CCN1C(=O)Cc1n[nH]c2ccccc12 (racemic) [Example 44, (±)-{4-Chloro-2-[5-(2-1H-indazol-3-yl-acetyl)-4,5,6,7-tetrahydro-thiazolo[5,4-c]pyridin-4-yl]-phenoxy}-acetic acid]
0.9	Cc1ccc(COC(=O)N2CCc3ncsc3[C@H]2c2cc(Cl)ccc2OCC(=O)O)c(C)c1 [Example 63, (R)-4-(2-Carboxymethoxy-5-chloro-phenyl)-6,7-dihydro-4H-thiazolo[5,4-c]pyridine-5-carboxylic acid 2,4-dimethyl-benzyl ester]
6.4	O=C(O)COc1ccc(Cl)cc1C1c2scnc2CCN1C(=O)OCCc1ccccc1 (racemic) [Example 88, (±)-4-(2-Carboxymethoxy-5-chloro-phenyl)-6,7-dihydro-4H-thiazolo[5,4-c]pyridine-5-carboxylic acid phenethyl ester]
733	O=C(O)COc1ccc(Cl)cc1C1c2scnc2CCN1C(=O)C1Cc2ccccc2C1 (racemic) [Example 36, (±)-{4-Chloro-2-[5-(indane-2-carbonyl)-4,5,6,7-tetrahydro-thiazolo[5,4-c]pyridin-4-yl]-phenoxy}-acetic acid]
